{"source": "ChEMBL document CHEMBL4311976", "about": "“Design, synthesis and biological evaluation of novel 7H-pyrrolo[2,3-d]pyrimidine derivatives as potential FAK inhibitors and anticancer agents” (Eur J Med Chem, 2019)", "key": {"A549 [1]": {"system": "A549", "experiment": "cells", "conditions": "Homo sapiens, A549, 72 h", "description": "Antiproliferative activity against human A549 cells assessed as reduction in cell viability after 72 hrs by MTT assay"}, "[2]": {"biological_target": "Tyrosine-protein kinase SYK (Homo sapiens) (UniProt P43405)", "experiment": "Inhibition of recombinant full length GST-tagged human SYK expressed in baculovirus expression system at 0.5 uM using tyr 02 as substrate in presence of ATP at Km concentration after 1 hr by Z'-LYTE assay relative to control"}, "A549 [3]": {"system": "A549", "experiment": "Induction of apoptosis in human A549 cells assessed as late apoptotic cells at 3 uM after 72 hrs by Annexin V-FITC/propidium iodide staining-based flow cytometric analysis (reference value: 1.24%)", "assay_type": "functional"}, "[4]": {"biological_target": "Hepatocyte growth factor receptor (Homo sapiens) (UniProt P08581)", "sequence (P08581 whole entry, the tested form may be a part)": "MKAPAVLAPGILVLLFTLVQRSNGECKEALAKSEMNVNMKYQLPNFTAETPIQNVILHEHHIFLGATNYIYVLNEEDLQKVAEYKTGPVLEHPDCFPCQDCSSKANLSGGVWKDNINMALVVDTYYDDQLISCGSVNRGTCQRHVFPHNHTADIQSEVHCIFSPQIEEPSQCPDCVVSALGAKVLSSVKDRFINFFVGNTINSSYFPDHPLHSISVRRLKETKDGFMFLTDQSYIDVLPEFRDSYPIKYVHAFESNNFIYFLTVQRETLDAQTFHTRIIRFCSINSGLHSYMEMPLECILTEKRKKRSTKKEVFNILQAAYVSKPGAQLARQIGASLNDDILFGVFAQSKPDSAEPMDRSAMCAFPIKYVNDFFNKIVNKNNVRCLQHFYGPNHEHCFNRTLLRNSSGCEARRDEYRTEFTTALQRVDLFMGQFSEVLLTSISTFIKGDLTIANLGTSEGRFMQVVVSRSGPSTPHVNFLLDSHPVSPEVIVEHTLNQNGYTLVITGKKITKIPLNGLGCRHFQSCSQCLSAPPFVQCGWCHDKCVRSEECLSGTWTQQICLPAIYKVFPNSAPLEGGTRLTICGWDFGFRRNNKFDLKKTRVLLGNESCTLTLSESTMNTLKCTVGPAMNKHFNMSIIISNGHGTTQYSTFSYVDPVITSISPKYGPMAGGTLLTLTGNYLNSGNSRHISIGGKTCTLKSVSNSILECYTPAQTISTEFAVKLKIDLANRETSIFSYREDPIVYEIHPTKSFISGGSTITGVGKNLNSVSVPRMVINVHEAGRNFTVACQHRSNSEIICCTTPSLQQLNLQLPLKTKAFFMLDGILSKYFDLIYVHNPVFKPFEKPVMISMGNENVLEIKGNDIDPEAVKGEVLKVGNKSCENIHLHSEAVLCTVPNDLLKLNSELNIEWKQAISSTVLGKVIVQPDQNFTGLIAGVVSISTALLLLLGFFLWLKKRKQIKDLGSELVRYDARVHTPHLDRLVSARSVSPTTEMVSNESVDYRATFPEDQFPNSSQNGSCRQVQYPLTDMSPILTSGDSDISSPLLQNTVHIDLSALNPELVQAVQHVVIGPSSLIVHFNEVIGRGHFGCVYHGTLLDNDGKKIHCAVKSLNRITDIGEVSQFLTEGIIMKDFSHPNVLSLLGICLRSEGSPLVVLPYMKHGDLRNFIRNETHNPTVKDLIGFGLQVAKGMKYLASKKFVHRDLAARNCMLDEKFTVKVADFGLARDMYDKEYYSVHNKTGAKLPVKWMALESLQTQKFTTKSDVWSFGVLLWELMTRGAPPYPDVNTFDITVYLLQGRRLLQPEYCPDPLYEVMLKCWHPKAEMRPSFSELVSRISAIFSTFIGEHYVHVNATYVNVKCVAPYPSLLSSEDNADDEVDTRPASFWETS", "experiment": "Inhibition of recombinant full length N-terminal His-tagged human cMET cytoplasmic domain (956 to 1390 residues) expressed in baculovirus expression system at 0.5 uM using tyr 06 as substrate in presence of ATP at Km concentration after 1 hr by Z'-LYTE assay relative to control"}, "[5]": {"experiment": "Metabolic stability in human liver microsomes assessed as compound remaining at 1 uM measured up to 1 hr in presence of NADPH by LC-MS/MS analysis", "assay_type": "ADME, Microsome", "conditions": "read-out: Stability"}, "A549 [6]": {"system": "A549", "experiment": "Induction of apoptosis in human A549 cells assessed as viable cells at 9 uM after 72 hrs by Annexin V-FITC/propidium iodide staining-based flow cytometric analysis (reference value: 94.66%)", "assay_type": "functional", "conditions": "A549, 72 h, read-out: Activity"}, "[7]": {"experiment": "Metabolic stability in rat liver microsomes assessed as compound remaining at 1 uM measured up to 1 hr in presence of NADPH by LC-MS/MS analysis", "assay_type": "ADME, Microsome", "conditions": "read-out: Stability"}, "A549 [8]": {"system": "A549", "experiment": "Induction of apoptosis in human A549 cells assessed as viable cells at 3 uM after 72 hrs by Annexin V-FITC/propidium iodide staining-based flow cytometric analysis (reference value: 94.66%)", "assay_type": "functional", "conditions": "A549, 72 h, read-out: Activity"}, "[9]": {"biological_target": "Discoidin domain-containing receptor 2 (Homo sapiens) (UniProt Q16832)", "experiment": "Inhibition of recombinant GST-tagged human DDR2 (427 to 855 residues) expressed in baculovirus expression system at 0.5 uM after 1 hr by Lantha screen assay relative to control"}, "A549 [10]": {"system": "A549", "experiment": "Induction of apoptosis in human A549 cells after 72 hrs by Annexin V-FITC/propidium iodide staining-based flow cytometric analysis", "assay_type": "functional, cell-based"}, "A549 [11]": {"system": "A549", "experiment": "Induction of apoptosis in human A549 cells assessed as viable cells at 1 uM after 72 hrs by Annexin V-FITC/propidium iodide staining-based flow cytometric analysis (reference value: 94.66%)", "assay_type": "functional", "conditions": "A549, 72 h, read-out: Activity"}, "A549 [12]": {"system": "A549", "experiment": "Induction of apoptosis in human A549 cells assessed as early apoptotic cells at 1 uM after 72 hrs by Annexin V-FITC/propidium iodide staining-based flow cytometric analysis (reference value: 2.40%)", "assay_type": "functional"}, "Focal adhesion kinase 1": {"biological_target": "Focal adhesion kinase 1 (Homo sapiens, UniProt Q05397)", "experiment": "Inhibition of recombinant full length GST-tagged human FAK cytoplasmic domain expressed in baculovirus expression system at 0.5 uM using tyr 07 as substrate in presence of ATP at Km concentration after 1 hr by Z'-LYTE assay relative to control"}, "A549 [13]": {"system": "A549", "experiment": "Antimetastatic activity against human A549 cells assessed as reduction in number of cell migration after 72 hrs by crystal violet staining based transwell assay", "assay_type": "functional"}, "[14]": {"experiment": "Half life in rat liver microsomes at 1 uM measured up to 1 hr by LC-MS/MS analysis", "assay_type": "ADME, Microsome"}, "[15]": {"biological_target": "Vascular endothelial growth factor receptor 2 (Homo sapiens) (UniProt P35968)", "sequence (P35968 whole entry, the tested form may be a part)": "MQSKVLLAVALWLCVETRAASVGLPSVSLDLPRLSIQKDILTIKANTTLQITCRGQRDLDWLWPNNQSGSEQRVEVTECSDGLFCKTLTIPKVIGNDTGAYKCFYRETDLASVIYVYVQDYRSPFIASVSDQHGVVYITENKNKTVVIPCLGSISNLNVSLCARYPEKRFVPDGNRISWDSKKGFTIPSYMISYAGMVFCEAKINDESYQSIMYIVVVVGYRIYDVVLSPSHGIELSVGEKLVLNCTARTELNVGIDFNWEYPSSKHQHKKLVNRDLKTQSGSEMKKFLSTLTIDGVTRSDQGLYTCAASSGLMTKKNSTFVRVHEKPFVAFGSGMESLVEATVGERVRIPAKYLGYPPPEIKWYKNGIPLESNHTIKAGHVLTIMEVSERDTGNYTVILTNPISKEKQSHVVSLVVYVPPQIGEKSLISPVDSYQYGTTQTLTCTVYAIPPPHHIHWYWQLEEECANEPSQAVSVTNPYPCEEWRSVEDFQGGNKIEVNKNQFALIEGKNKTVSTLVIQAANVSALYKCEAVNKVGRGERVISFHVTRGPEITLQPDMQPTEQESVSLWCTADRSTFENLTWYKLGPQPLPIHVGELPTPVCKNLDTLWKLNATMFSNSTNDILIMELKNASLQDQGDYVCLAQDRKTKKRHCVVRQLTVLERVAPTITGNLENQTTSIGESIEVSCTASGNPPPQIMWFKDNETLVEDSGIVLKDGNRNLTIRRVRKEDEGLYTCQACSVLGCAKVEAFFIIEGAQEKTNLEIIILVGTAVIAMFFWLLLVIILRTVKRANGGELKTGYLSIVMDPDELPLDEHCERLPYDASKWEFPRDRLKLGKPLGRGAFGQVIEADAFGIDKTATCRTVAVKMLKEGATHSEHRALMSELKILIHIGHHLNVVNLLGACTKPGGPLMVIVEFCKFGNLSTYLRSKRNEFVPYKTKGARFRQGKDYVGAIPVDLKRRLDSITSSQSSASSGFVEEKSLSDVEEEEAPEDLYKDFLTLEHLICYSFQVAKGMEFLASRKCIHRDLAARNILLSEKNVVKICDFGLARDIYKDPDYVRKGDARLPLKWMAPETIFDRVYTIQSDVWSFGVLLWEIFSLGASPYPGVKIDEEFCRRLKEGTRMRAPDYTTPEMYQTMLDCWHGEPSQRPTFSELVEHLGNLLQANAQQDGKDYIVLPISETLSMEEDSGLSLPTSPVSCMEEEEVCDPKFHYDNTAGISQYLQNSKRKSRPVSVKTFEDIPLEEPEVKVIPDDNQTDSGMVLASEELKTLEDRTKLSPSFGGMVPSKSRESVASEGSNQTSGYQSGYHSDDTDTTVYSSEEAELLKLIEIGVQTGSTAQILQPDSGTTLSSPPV", "experiment": "Inhibition of recombinant His-tagged human KDR cytoplasmic domain (789 to 1356 residues) expressed in baculovirus expression system at 0.5 uM using tyr 01 as substrate in presence of ATP at Km concentration after 1 hr by Z'-LYTE assay relative to control"}, "HK-2": {"system": "HK-2", "experiment": "cells", "conditions": "Homo sapiens, HK-2, 72 h", "description": "Cytotoxicity against human HK2 cells assessed as reduction in cell viability after 72 hrs by MTT assay"}, "[16]": {"biological_target": "Proto-oncogene tyrosine-protein kinase receptor Ret (Homo sapiens) (UniProt P07949)", "experiment": "Inhibition of recombinant GST-tagged human RET (658 to 1114 residues) expressed in baculovirus expression system at 0.5 uM using tyr 02 as substrate in presence of ATP at Km concentration after 1 hr by Z'-LYTE assay relative to control"}, "[17]": {"biological_target": "Tyrosine-protein kinase ABL1 (Homo sapiens) (UniProt P00519)", "experiment": "Inhibition of full-length His-tagged human ABL1 expressed in baculovirus expression system at 0.5 uM using tyr 02 as substrate in presence of ATP at Km concentration after 1 hr by Z'-LYTE assay relative to control"}, "A549 [18]": {"system": "A549", "experiment": "Induction of apoptosis in human A549 cells assessed as necrotic cells at 3 uM after 72 hrs by Annexin V-FITC/propidium iodide staining-based flow cytometric analysis (reference value: 1.70%)", "assay_type": "functional"}, "[19]": {"experiment": "Intrinsic clearance in mouse liver microsomes at 1 uM measured up to 1 hr in presence of NADPH by LC-MS/MS analysis", "assay_type": "ADME, Microsome", "conditions": "read-out: CLH"}, "[20]": {"biological_target": "Receptor tyrosine-protein kinase erbB-2 (Homo sapiens) (UniProt P04626)", "sequence (P04626 whole entry, the tested form may be a part)": "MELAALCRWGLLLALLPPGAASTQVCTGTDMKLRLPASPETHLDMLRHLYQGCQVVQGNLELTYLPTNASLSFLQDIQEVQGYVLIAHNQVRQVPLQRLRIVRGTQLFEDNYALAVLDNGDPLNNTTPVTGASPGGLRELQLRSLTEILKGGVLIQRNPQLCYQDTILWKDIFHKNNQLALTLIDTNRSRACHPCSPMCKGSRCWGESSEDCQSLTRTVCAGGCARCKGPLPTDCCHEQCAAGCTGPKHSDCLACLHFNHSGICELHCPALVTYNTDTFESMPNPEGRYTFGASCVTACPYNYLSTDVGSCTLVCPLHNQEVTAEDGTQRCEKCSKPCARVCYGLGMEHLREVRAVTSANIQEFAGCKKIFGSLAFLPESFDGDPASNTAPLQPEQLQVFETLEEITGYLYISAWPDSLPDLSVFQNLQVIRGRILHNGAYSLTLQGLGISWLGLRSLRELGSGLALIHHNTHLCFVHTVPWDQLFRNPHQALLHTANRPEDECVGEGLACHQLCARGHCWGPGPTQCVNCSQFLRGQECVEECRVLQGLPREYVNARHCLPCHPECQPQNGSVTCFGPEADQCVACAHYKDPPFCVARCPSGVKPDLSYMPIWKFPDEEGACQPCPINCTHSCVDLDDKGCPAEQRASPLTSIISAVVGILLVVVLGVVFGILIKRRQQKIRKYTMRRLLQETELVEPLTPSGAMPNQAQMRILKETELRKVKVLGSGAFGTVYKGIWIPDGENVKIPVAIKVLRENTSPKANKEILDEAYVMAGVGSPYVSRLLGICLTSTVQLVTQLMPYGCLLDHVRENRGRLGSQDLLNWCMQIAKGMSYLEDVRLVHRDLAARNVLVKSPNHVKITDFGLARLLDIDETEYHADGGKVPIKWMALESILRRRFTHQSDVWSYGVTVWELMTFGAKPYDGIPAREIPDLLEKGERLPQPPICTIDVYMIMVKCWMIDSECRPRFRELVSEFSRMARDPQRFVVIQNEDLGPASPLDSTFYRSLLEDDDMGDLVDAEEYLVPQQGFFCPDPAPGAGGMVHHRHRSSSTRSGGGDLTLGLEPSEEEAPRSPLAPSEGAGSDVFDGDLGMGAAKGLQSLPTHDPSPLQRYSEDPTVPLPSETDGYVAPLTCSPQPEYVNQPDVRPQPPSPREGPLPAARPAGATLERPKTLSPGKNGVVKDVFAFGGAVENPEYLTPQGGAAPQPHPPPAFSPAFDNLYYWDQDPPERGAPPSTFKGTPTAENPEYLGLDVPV", "experiment": "Inhibition of recombinant His-tagged human HER2 (676 to 1255 residues) expressed in baculovirus expression system at 0.5 uM using tyr 06 as substrate in presence of ATP at Km concentration after 1 hr by Z'-LYTE assay relative to control"}, "MDA-MB-231": {"system": "MDA-MB-231", "experiment": "cells", "conditions": "Homo sapiens, MDA-MB-231, 72 h", "description": "Antiproliferative activity against human MDA-MB-231 cells assessed as reduction in cell viability after 72 hrs by MTT assay"}, "[21]": {"experiment": "Intrinsic clearance in human liver at 1 uM measured up to 1 hr in presence of NADPH by LC-MS/MS analysis", "assay_type": "ADME, tissue-based"}, "[22]": {"biological_target": "Tyrosine-protein kinase BTK (Homo sapiens) (UniProt Q06187)", "sequence (Q06187 whole entry)": "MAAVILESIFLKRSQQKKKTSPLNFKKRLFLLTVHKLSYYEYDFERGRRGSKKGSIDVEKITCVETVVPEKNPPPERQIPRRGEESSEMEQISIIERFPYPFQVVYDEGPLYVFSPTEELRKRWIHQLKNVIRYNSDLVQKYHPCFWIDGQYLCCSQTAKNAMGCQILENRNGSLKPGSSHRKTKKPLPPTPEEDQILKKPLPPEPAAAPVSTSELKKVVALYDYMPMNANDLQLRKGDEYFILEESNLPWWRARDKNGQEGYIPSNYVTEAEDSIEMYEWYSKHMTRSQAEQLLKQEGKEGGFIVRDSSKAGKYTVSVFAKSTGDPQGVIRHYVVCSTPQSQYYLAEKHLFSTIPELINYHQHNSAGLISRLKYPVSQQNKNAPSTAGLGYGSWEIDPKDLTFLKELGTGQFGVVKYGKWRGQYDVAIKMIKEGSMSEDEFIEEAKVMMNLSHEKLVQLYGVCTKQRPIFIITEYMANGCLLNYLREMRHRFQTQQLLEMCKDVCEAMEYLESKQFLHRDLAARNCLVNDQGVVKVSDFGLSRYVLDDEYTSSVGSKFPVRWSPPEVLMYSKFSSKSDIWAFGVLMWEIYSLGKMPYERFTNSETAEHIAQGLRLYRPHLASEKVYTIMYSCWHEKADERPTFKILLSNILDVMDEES", "experiment": "Inhibition of recombinant full-legth His-tagged human BTK expressed in baculovirus expression system at 0.5 uM using tyr 01 as substrate in presence of ATP at Km concentration after 1 hr by Z'-LYTE assay relative to control"}, "[23]": {"biological_target": "Mitogen-activated protein kinase 1 (Homo sapiens) (UniProt P28482)", "sequence (P28482 whole entry)": "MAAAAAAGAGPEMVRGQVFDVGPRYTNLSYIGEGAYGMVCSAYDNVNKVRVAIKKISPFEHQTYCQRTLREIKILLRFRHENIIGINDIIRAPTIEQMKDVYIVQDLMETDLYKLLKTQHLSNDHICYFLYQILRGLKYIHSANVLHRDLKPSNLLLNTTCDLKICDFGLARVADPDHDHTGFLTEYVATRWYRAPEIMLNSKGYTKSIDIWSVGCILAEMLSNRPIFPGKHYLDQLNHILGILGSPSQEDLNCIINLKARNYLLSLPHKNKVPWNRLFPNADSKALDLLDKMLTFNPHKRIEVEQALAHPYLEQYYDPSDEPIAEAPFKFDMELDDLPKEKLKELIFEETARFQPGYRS", "experiment": "Inhibition of recombinant full length GST-tagged human ERK2 expressed in Escherichia coli at 0.5 uM using Ser/Thr 03 as substrate in presence of ATP at Km concentration after 1 hr by Z'-LYTE assay relative to control"}, "[24]": {"experiment": "Metabolic stability in human liver microsomes assessed as compound remaining at 1 uM measured up to 1 hr in absence of NADPH by LC-MS/MS analysis", "assay_type": "ADME, Microsome", "conditions": "read-out: Stability"}, "[25]": {"experiment": "Half life in human liver microsomes at 1 uM measured up to 1 hr by LC-MS/MS analysis", "assay_type": "ADME, Microsome"}, "[26]": {"experiment": "Intrinsic clearance in rat liver at 1 uM measured up to 1 hr in presence of NADPH by LC-MS/MS analysis", "assay_type": "ADME, tissue-based"}, "A549 [27]": {"system": "A549", "experiment": "Induction of apoptosis in human A549 cells assessed as late apoptotic cells at 9 uM after 72 hrs by Annexin V-FITC/propidium iodide staining-based flow cytometric analysis (reference value: 1.24%)", "assay_type": "functional"}}, "data": [{"smiles": "COc1cc(C(=O)NC2CCNCC2)ccc1Nc1nc(Nc2ccccc2P(C)(C)=O)c2cc[nH]c2n1", "values": [{"measurement": "IC50", "setting": "A549 [1]", "value": 3.2, "unit": "µM"}, {"measurement": "inhibition", "setting": "[2]", "value": 73, "unit": "%"}, {"measurement": "Activity", "setting": "A549 [3]", "value": 25.09, "unit": "%"}, {"measurement": "inhibition", "setting": "[4]", "value": -2, "unit": "%"}, {"measurement": "remaining at 1 h, 1 µM", "setting": "[5]", "value": 67.9, "unit": "%"}, {"measurement": "viability at 9 µM", "setting": "A549 [6]", "value": 29.1, "unit": "%"}, {"measurement": "remaining at 1 h, 1 µM", "setting": "[7]", "value": 80.7, "unit": "%"}, {"measurement": "viability at 3 µM", "setting": "A549 [8]", "value": 52.9, "unit": "%"}, {"measurement": "inhibition", "setting": "[9]", "value": 1, "unit": "%"}, {"measurement": "Activity", "setting": "A549 [10]", "value": "Dose-dependent effect"}, {"measurement": "viability at 1 µM", "setting": "A549 [11]", "value": 70.7, "unit": "%"}, {"measurement": "Activity", "setting": "A549 [12]", "value": 13.27, "unit": "%"}, {"measurement": "inhibition", "setting": "Focal adhesion kinase 1", "value": 100, "unit": "%"}, {"measurement": "Activity", "setting": "A549 [13]", "value": "Dose-dependent effect"}, {"measurement": "half-life at 1 µM", "setting": "[14]", "value": "> 2.42", "unit": "h"}, {"measurement": "inhibition", "setting": "[15]", "value": 1, "unit": "%"}, {"measurement": "IC50", "setting": "HK-2", "value": "> 25", "unit": "µM"}, {"measurement": "inhibition", "setting": "[16]", "value": 10, "unit": "%"}, {"measurement": "inhibition", "setting": "[17]", "value": 5, "unit": "%"}, {"measurement": "Activity", "setting": "A549 [18]", "value": 4.72, "unit": "%"}, {"measurement": "microsomal CLint at 1 µM", "setting": "[19]", "value": 10.1, "unit": "µL/min/mg"}, {"measurement": "inhibition", "setting": "[20]", "value": 12, "unit": "%"}, {"measurement": "IC50", "setting": "MDA-MB-231", "value": 17.4, "unit": "µM"}, {"measurement": "CLH", "setting": "[21]", "value": 11.6, "unit": "mL/min/kg"}, {"measurement": "inhibition", "setting": "[22]", "value": 0, "unit": "%"}, {"measurement": "inhibition", "setting": "[23]", "value": 9, "unit": "%"}, {"measurement": "remaining at 1 h, 1 µM", "setting": "[24]", "value": 81.2, "unit": "%"}, {"measurement": "half-life at 1 µM", "setting": "[25]", "value": 1.79, "unit": "h"}, {"measurement": "CLH", "setting": "[26]", "value": "< 17.3", "unit": "mL/min/kg"}, {"measurement": "Activity", "setting": "A549 [27]", "value": 36.59, "unit": "%"}]}]}
